# From patent publication US11098061B2 (Celgene CAR LLC, priority 2013, dated 2021)
# How the values were obtained:
# [1] = molecular target: p38a activated, mitogen-activated protein kinase-activated protein kinase 2 (MAPKAP-K2 or MK-2) enzyme (Homo sapiens (Human), UniProt P49137); test: MK2 Omnia continuous-read kinase assay for compound potency; assay type: biochemical; conditions: [MK-2]=0.4 nM, [ATP]=1.0 mM, [ST3-Sox]=10 μM
# Procedure, shortened: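 Continuous Omnia fluorescence read (λex360/λem485) every 71 s after starting with 0.4 nM MK-2, with 1.0 mM ATP (appKM 8-10 μM) and 10 μM ST3-Sox substrate.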
# [2] = molecular target: T1, MK2 (Homo sapiens (Human), UniProt P49137); test: MK2 cellular assay (Hsp27 phosphorylation in Thp-1 cells); assay type: cell-based; conditions: differentiated Thp-1 cells, compound 1 hour, 50 ng/ml LPS 15 minutes, phosphorylation of Hsp27; read-out: MK2EC50
# Experimental: Compounds were assayed in Thp-1 human acute monocytic leukemia cells to measure inhibition of MK2 activity. Thp-1 were grown in suspension in T225 flasks. Two days prior to assay, Thp-1 cells were spun down, counted and plated at 1×10^6 cells per well of a 12 well plate in complete media containing 10 ng/ml PMA (phorbol myristate acetate) to differentiate the cells. On day of assay, cells were washed with complete media, and compound was added to differentiated Thp-1 cells for 1 hour. Cells were washed again, and complete media containing 50 ng/ml LPS (lipopolysaccharide) was added. After 15 minutes, cells were washed once with PBS and lysed on ice with BioRad Bioplex lysis buffer. 20 μg total protein from lysates were loaded on gel and blots were probed for phosphorylation of the MK2 substrate Hsp27. Dose response inhibition of MK2 signaling in differentiated Thp-1 cells was used to determine the EC50 for compounds reported in Table A in the column entitled “MK2 EC50.”
# [3] = molecular target: T1, MK2; test: MK2 modification assessment by whole protein mass spectrometry; assay type: binding; conditions: intact MK2, 60 min, 10-fold excess of compound to protein
# Procedure, shortened: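 MK2 treated with compound is analysed intact by MALDI-TOF after C4 cleanup in sinapinic acid matrix. Percent modification is the centroid mass shift against control MK2 divided by compound mass.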
# T1 sequence (P49137 whole entry): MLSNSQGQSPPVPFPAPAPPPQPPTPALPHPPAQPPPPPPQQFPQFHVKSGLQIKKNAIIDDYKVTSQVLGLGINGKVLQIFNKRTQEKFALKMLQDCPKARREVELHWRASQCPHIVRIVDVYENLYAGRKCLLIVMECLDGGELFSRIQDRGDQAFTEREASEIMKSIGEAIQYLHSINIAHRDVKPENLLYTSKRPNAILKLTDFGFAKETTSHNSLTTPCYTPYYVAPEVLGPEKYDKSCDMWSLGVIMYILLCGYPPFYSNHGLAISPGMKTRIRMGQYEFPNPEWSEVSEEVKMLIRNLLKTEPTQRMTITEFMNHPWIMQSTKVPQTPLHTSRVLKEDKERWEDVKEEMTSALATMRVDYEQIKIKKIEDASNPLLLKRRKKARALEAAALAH
# Chain of p38a activated, mitogen-activated protein kinase-activated protein kinase 2 (MAPKAP-K2 or MK-2) enzyme (P49137 whole entry): as above
SMILES,IC50 [1],EC50 [2],MK2 Mass Mod [3]
"C=CC(=O)Nc1cc(-c2cc3c(cn2)CCc2c-3[nH]c3c2C(=O)NCC3)cnc1N1CCN(C)CC1 [II-26, N-(2-(4-methylpiperazin-1-yl)-5-(7-oxo-6,7,8,9,10,11-hexahydro-SH-pyrido[3′,4′:4,5]pyrrolo[2,3-f]isoquinolin-2-yl)pyridin-3-yl)acrylamide]",< 100 nM,101 to 500 nM,E (mass modification of ≥70%)
"C=CC(=O)Nc1cccc2[nH]c(-c3ccc4cc5n(c4c3)C3(CCC3)CNC5=O)nc12 [Compound V-63, N-(2-(1′-oxo-2′,3′-dihydro-1′H-spiro[cyclobutane-1,4′-pyrazino [1,2-a]indol]-7′-yl)-1H-benzo[d]imidazol-4-yl)acrylamide]",< 100 nM,< 100 nM,E (mass modification of ≥70%)
"C=CC(=O)N1CC(C)(C)Oc2ccc(NC(=O)c3ccc4cc5n(c4c3)C3(CCC3)CNC5=O)cc21 [Compound V-51, N-(4-acryloyl-2,2-dimethyl-3,4-dihydro-2H-benzo[b][1,4]oxazin-6-yl)-1′-oxo-2′,3′-dihydro-1′H-spiro[cyclobutane-1,4′-pyrazino [1,2-a]indole]-7′-carboxamide]",< 100 nM,101 to 500 nM,E (mass modification of ≥70%)
"C=CC(=O)N1CCOc2ccc(-c3cc4c(ccc5c6c([nH]c54)CCC6=O)cn3)cc21 [II-e-8, 2-(4-acryloyl-3,4-dihydro-2H-benzo[b][1,4]oxazin-6-yl)-8,9-dihydrocyclopenta[4,5]pyrrolo[2,3-f]isoquinolin-7(10H)-one]",< 100 nM,> 1000 nM,E (mass modification of ≥70%)
"C=CC(=O)Nc1cc(-c2ncc3c(n2)-c2[nH]c4c(c2CC3)C(=O)NCC4)cnc1OCCOC [II-13, N-(2-(2-methoxyethoxy)-5-(7-oxo-6,7,8,9,10,11-hexahydro-5H-pyrido[3′,4′:4,5]pyrrolo[3,2-h]quinazolin-2-yl)pyridin-3-yl)acrylamide]",< 100 nM,101 to 500 nM,E (mass modification of ≥70%)
"C=CC(=O)Nc1cc(-c2cc3c(cn2)CCc2c-3[nH]c3c2C(=O)NCC3)ccc1OC [II-2, N-(2-methoxy-5-(7-oxo-6,7,8,9,10,11-hexahydro-5H-pyrido[3′,4′:4,5]pyrrolo[2,3-f]isoquinolin-2-yl)phenyl)acrylamide]",< 100 nM,< 100 nM,E (mass modification of ≥70%)
"C=CC(=O)Nc1cc(NC(=O)c2ccc3cc4n(c3c2)C2(CCC2)CNC4=O)ccc1N1CCN(C)CC1 [Compound V-15, N-(3-acrylamido-4-(4-methylpiperazin-1-yl)phenyl)-1′-oxo-2′,3′-dihydro-1′H-spiro[cyclobutane-1,4′-pyrazino[1,2-a]indole]-7′-carboxamide]",< 100 nM,101 to 500 nM,E (mass modification of ≥70%)
"C=CC(=O)Nc1cc(-c2ccc3c(ccc4sc5c(c43)NC[C@@H](C)NC5=O)n2)cnc1C [III-1, (R)—N-(2-methyl-5-(10-methyl-8-oxo-9,10,11,12-tetrahydro-8H-[1,4]diazepino[5′,6′:4,5]thieno[3,2-f]quinolin-3-yl)pyridin-3-yl)acrylamide]",< 100 nM,< 100 nM,E (mass modification of ≥70%)
"C=CC(=O)N1CCOc2ccc(-c3cc4c(cn3)CCc3c-4[nH]c4c3C(=O)NC3(CC3)C4)cc21 [II-12, 2′-(4-acryloyl-3,4-dihydro-2H-benzo[b][1,4]oxazin-6-yl)-5′,6′,10′,11′-tetrahydrospiro[cyclopropane-1,9′-pyrido[3′,4′:4,5]pyrrolo[2,3-f]isoquinolin]-7′(8′H)-one]",< 100 nM,501 to 999 nM,E (mass modification of ≥70%)
C=CC(=O)Nc1cc(-c2cc(-c3cc4c([nH]3)C3(CCCNC3)CNC4=O)ccn2)cc(C(F)(F)F)c1 (stereo not drawn) [Compound I-9],< 100 nM,> 1000 nM,E (mass modification of ≥70%)
"C=CC(=O)Nc1cc(OCC)ccc1Nc1c(C)c(NC2CCCNC2)nc2ccnn12 (stereo not drawn) [IV-2, N-(5-ethoxy-2-((6-methyl-5-(piperidin-3-ylamino)pyrazolo [1,5-a]pyrimidin-7-yl)amino)phenyl)acrylamide]",101 to 500 nM,> 1000 nM,E (mass modification of ≥70%)
"C=CC(=O)N1CCOc2ccc(NC(=O)c3ccc4cc5n(c4c3)CCNC5=O)cc21 [Compound V-6, N-(4-acryloyl-3,4-dihydro-2H-benzo[b][1,4]oxazin-6-yl)-1-oxo-1,2,3,4-tetrahydropyrazino[1,2-a]indole-7-carboxamide]",< 100 nM,> 1000 nM,E (mass modification of ≥70%)
"C=CC(=O)Nc1cc(NC(=O)c2ccc3sc4c(c3c2)NC[C@@H](C)NC4=O)ccc1F [III-6, (R)—N-(3-acrylamido-4-fluorophenyl)-3-methyl-5-oxo-2,3,4,5-tetrahydro-1H-benzo[4,5]thieno[3,2-e][1,4]diazepine-9-carboxamide]",< 100 nM,< 100 nM,E (mass modification of ≥70%)
"C=CC(=O)Nc1cc(-c2cc3c(cn2)CCc2c-3[nH]c3c2C(=O)NC2(CC2)C3)cnc1OCCOC [II-8, N-(2-(2-methoxyethoxy)-5-(7′-oxo-5′,6′,7′,8′8′,1′,11′-hexahydrospiro[cyclopropane-1,9′-pyrido[3′,4′:4,5]pyrrolo[2,3-f]isoquinolin]-2′-yl)pyridin-3-yl)acrylamide]",< 100 nM,< 100 nM,E (mass modification of ≥70%)
"C=CC(=O)Nc1cc(Cl)cc2oc(-c3ccc4cc5n(c4c3)C3(CCC3)CNC5=O)nc12 [Compound V-62, N-(6-chloro-2-(1′-oxo-2′,3′-dihydro-1′H-spiro[cyclobutane-1,4′-pyrazino [1,2-a]indol]-7′-yl)benzo[d]oxazol-4-yl)acrylamide]",101 to 500 nM,101 to 500 nM,E (mass modification of ≥70%)
"C=CC(=O)N1CCOc2ccc(-c3nccc(-c4cc5n(c4)CCNC5=O)n3)cc21 [V-c-3, 7-(2-(4-acryloyl-3,4-dihydro-2H-benzo[b][1,4]oxazin-6-yl)pyrimidin-4-yl)-3,4-dihydropyrrolo[1,2-a]pyrazin-1(2H)-one]",< 100 nM,> 1000 nM,E (mass modification of ≥70%)
"C=CC(=O)N1CCCC(NC(=O)c2ccc3sc4c(c3c2)NC[C@@H](C)NC4=O)C1 (stereo partly drawn) [III-51, (3R)—N-(1-acryloylpiperidin-3-yl)-3-methyl-5-oxo-2,3,4,5-tetrahydro-1H-benzo[4,5]thieno[3,2-e][1,4]diazepine-9-carboxamide]",< 100 nM,< 100 nM,E (mass modification of ≥70%)
"C=CC(=O)Nc1cc(-c2cc3c(ccc4c5c([nH]c43)CCC5=O)cn2)ccc1Cl [II-e-20, N-(2-chloro-5-(7-oxo-7,8,9,10-tetrahydrocyclopenta[4,5]pyrrolo[2,3-f]isoquinolin-2-yl)phenyl)acrylamide]",< 100 nM,101 to 500 nM,E (mass modification of ≥70%)
